Test results as given in PMC12751061, “Expression and characterization of an endo-β-1,6-galactanase from Arabidopsis thaliana” (Biochemical Journal, 2025).

Target: T1, ATIYA1 (Arabidopsis thaliana, UniProt F4HP22)
T1 construct: gene At1g13130; secreted from Komagataella phaffii X-33 (pPICZalpha-A), N-glycosylated, Ni-NTA purified
Experiment: HPAEC-PAD hydrolysis time course
Assay type: biochemical
Conditions: 100 µM substrate, 10 nM enzyme, 0.1 M sodium acetate pH 5.0, 30°C

T1 sequence (F4HP22 entry or part of it): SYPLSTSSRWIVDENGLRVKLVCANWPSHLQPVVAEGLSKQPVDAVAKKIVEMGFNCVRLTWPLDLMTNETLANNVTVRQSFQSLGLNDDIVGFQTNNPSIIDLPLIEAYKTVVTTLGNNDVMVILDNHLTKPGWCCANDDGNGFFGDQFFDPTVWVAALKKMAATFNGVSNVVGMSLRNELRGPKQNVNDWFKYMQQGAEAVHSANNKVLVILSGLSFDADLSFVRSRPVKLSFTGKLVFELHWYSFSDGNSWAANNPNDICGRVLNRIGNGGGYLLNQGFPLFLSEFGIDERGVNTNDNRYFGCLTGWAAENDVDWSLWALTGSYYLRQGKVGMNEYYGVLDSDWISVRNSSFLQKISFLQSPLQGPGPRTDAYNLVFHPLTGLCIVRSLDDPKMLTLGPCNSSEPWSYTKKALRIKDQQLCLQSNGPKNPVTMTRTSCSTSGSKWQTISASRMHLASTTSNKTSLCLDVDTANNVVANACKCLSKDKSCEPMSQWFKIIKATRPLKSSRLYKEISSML

Row | Compound | HPAEC-PAD hydrolysis time course
1 | CO[C@@H]1O[C@H](CO[C@@H]2O[C@H](CO[C@@H]3O[C@H](CO[C@@H]4O[C@H](CO[C@@H]5O[C@H](CO[C@@H]6O[C@H](CO)[C@H](O)[C@H](O)[C@H]6O)[C@H](O)[C@H](O)[C@H]5O)[C@H](O)[C@H](O)[C@H]4O)[C@H](O)[C@H](O)[C@H]3O)[C@H](O)[C@H](O)[C@H]2O)[C@H](O)[C@H](O)[C@H]1O [methyl-β-1,6-galactohexaoside] | preferring higher degrees of polymerization such as methyl-β-1,6-galactopentaoside and methyl-β-1,6-galactohexaoside
2 | CO[C@@H]1O[C@H](CO[C@@H]2O[C@H](CO[C@@H]3O[C@H](CO[C@@H]4O[C@H](CO[C@@H]5O[C@H](CO)[C@H](O)[C@H](O)[C@H]5O)[C@H](O)[C@H](O)[C@H]4O)[C@H](O)[C@H](O)[C@H]3O)[C@H](O)[C@H](O)[C@H]2O)[C@H](O)[C@H](O)[C@H]1O [methyl-β-1,6-galactopentaoside] | preferring higher degrees of polymerization such as methyl-β-1,6-galactopentaoside and methyl-β-1,6-galactohexaoside
